{"source": "patent US20120058961A1", "about": "“Pharmaceutical Composition for Treating Cancers” (HENKAN PHARMACEUTICAL CO., LTD., priority 2010, published 2012)", "system": "Human prostatic carcinoma PC-3 cells", "experiment": "Apoptosis assay (cell death detection ELISA, nucleosome level) in PC-3 cells", "format": "cell-based", "method": "Human prostatic carcinoma PC-3 cells (ATCC, CRL-1435, USA) were used for apoptosis assay. The apoptosis test was conducted following the method as described by Guseva et al. […] The cell death of each test was detected by ELISA following the method as provided by Holdenrieder et al. (Holdenrieder et al., Quantification of nucleosomes in serum by the cell death detection ELISA^plus. Roche Applied Science Biochemica. 1: 25-27, 2002). The cells were collected after incubation, and then lysed and evaluated for nucleosome levels by ELISA kit (Cell Death Detection ELISA^PLUS Kit, Roche, 1774425). The read absorbance at 405 nm was measured for each test compound or a vehicle and the values of apoptosis % were calculated. […] Assay Reference FasL (3 nM) was added to the control wells (named as Total wells) and the Incubation buffer to the Blank wells. HK-06-[…] at a concentration of 8 μM or 3 μM was added to each well, and the plate was then incubated in Antagonist buffer for 16 hours at 37° C., 5% CO2. The nucleosome level of each well was determined by the cell death detection kit. […] The plate was then incubated in Agonist buffer for 16 hours at 37° C., 5% CO2. The nucleosome level of each well was determined by the cell death detection kit. In the assays for SAHA and HK-06-[…], SAHA at a concentration of 0.1 μM, 1 μM, 10 μM, 100 μM or 300 μM was replaced for the NaB. The HK-06-[…] at a concentration of 4.5 μM was used. Results are expressed as a percentage of the group treated with the test compound as compared to that of the control group.", "data": [{"molecule": "C[C@H](CCC1(O)O[C@H]2C[C@H]3[C@@H]4CC=C5C[C@@H](O[C@@H]6O[C@H](CO)[C@@H](O[C@@H]7O[C@@H](C)[C@H](O[C@@H]8O[C@@H](C)[C@H](O)[C@@H](O)[C@H]8O)[C@@H](O)[C@H]7O)[C@H](O)[C@H]6O[C@@H]6O[C@@H](C)[C@H](O)[C@@H](O)[C@H]6O)CC[C@]5(C)[C@H]4CC[C@]3(C)[C@H]2[C@@H]1C)CO[C@@H]1O[C@H](CO)[C@@H](O)[C@H](O)[C@H]1O", "note": "(stereo partly drawn) [HK-06-D01, (25R)-26-O-beta-D-glucopyranosyl-22-hydroxy-5-ene-furostan-3beta, 26-diol-3-O-alpha-L-rhamnopyranosyl-(1→4)-alpha-L-rhamnopyranosyl-(1→4)-[alpha-L-rhamnopyranosyl-(1→2)]-beta-D-glucopyranoside]", "values": [{"measurement": "means of Apoptosis %", "setting": "8 uM HK-06-D01 only (FIG. 1B)", "value": 51, "unit": "%"}, {"measurement": "means of Apoptosis %", "setting": "8 uM HK-06-D01 only as printed (FIG. 1C)", "value": 5, "unit": "%"}, {"measurement": "means of Apoptosis %", "setting": "8 uM HK-06-D01 only, 16 hours, relative to 3 nM Fas Ligand = 100% (FIG. 1A)", "value": 46.67, "unit": "%"}]}, {"molecule": "CCCC(=O)[O-].[Na+]", "note": "[NaB, sodium butyrate]", "values": [{"measurement": "means of Apoptosis %", "setting": "0.3 mM NaB only (FIG. 1B)", "value": 4, "unit": "%"}, {"measurement": "means of Apoptosis %", "setting": "0.3 mM NaB only as printed (FIG. 1C)", "value": 3, "unit": "%"}, {"measurement": "means of Apoptosis %", "setting": "1 mM NaB only, 16 hours, relative to 3 nM Fas Ligand = 100% (FIG. 1A)", "value": 29.67, "unit": "%"}]}]}
